In patent publication US20110053777A1, “Resistance to Acetolactate Synthase-Inhibiting Herbicides” (priority 2006, published 2011):

Key:
[1] = tested on: C. tinctoria ALS allele with mutations at both Pro197 and Trp574; assay: Herbicide resistance imparted by the double-mutant ALS allele; set-up: species or system Coreopsis tinctoria; settings: for Pre-emergence and/or post-emergence resistance to herbicide: novel allele with two point mutations; for Resistance of the clone with mutations at both Pro197 and Trp574: resistant clone with both mutations
[2] = tested on: resistant C. tinctoria plants; assay: Greenhouse herbicide spray test, resistant plants; type: in vivo
Procedure: (§1) Response of resistant and susceptible C. tinctoria to imidazolinone and sulfonylurea herbicides treatments: Both wild-type and mutant strains of C. tinctoria were planted in the greenhouse with ˜100 seeds per pot. Individual plants were transplanted to separate pots after seven weeks. The greenhouse regime comprised natural light with temperatures of 25 to 30° C. during the day and 15 to 20° C. at night. The experimental setup was a completely randomized design with five treatments and six plants (replications) per treatment for both wild-type and mutant strains. The five treatments were Arsenal (imazapyr), Oust (sulfometuron methyl), Arsenal+Oust sequential, Oust+Arsenal sequential, and control (no herbicide). […] to individual mutant or susceptible, […], with 12 plants per each herbicide treatment for both wild-type and mutants. Ten days later, the same rate of Oust was sprayed on six plants that had previously been treated with Arsenal, and the same rate of Arsenal was sprayed on six plants that had previously been treated with Oust, for both wild-type and mutants. […]
Plant height in resistant plants was not affected when sprayed with […] or imazapyr, as compared to the unsprayed resistant controls. […] It appeared that the imazapyr+sulfosulfuron methyl treatment stimulated growth in the resistant plants, an observation that will be confirmed in follow-up experiments. Various strains or genotypes of C. tinctoria were used in this study, so a direct evaluation of herbicide on plant height should be viewed with caution. […] Herbicide injury ratings for the resistant plants ranged from 0.5 to 1.2 (Table 2).

[3] = tested on: susceptible C. tinctoria plants; assay: Greenhouse herbicide spray test, susceptible plants; type: in vivo; settings: SM 8 oz. a.i./A, IM 2 oz. a.i./A
Procedure: as §1
The range of herbicide injury ratings for the sprayed susceptible plants was 3.3 to 4.8, with essentially no injury for the unsprayed controls.

[4] = tested on: ALS enzyme from the resistant C. tinctoria mutants; assay: ALS enzyme assay, C. tinctoria mutant versus susceptible; type: biochemical
Excerpt: (§2) ALS enzyme Assay: An ALS enzyme assay was used to determine if resistance in the mutants was due to the ALS enzyme itself in the mutant plants. A modification was used of the colorimetric method of Singh B. K., Stidham M. A., and Shaner D. L. 1988. Assay of acetohydroxyacid synthase. Analytical Biochemistry 171:173-179. Rice plants were used as controls. Sulfometuron methyl (Oust), chlorsulfuron (Glean), and imazapyr (Arsenal) were used as ALS inhibitors. Briefly, 10 grams of young leaves pooled from either mutant plants or from susceptible plants were ground to a powder in liquid nitrogen, and mixed with 50 ml of extraction buffer containing 100 mM K2HPO4 (pH 7.5), 10 mM sodium pyruvate, 5 mM EDTA, 1 mM valine, 1 mM leucine, 10 mM cysteine, 0.1 mM flavin adenine dinucleotide, 5 mM MgCl2, 10% (v/v) glycerol, and 1% (w/v) polyvinylpyrrolidone. The homogenate was filtered through eight layers of cheesecloth and centrifuged at 25,000 g at 4° C. for 20 min. The supernatant was brought to 50% saturation with (NH4)2SO4 by adding an equal volume of 100% saturated extraction buffer, and was then allowed to stand for 20-30 min on ice. The resulting solution was centrifuged at 25,000 g at 4° C. for another 20 min. The pellet was dissolved in 10 ml resuspension buffer containing 100 mM K2HPO4 (pH7.5), 1 mM EDTA, 100 mM NaCl, and 10% (v/v) glycerol. Bradford Reagent (SIGMA, Saint Louis, Mo., USA) was used to determine the concentration of total protein in solution; and resuspension buffer was used to adjust the concentrations of total protein from wild- and mutant-type of C. tinctoria to the same level.
(§3) ALS activity was measured by mixing 1.5 ml of assay buffer, containing 100 mM K2HPO4 (pH 7.0), 10 mM MgCl2, 100 mM sodium pyruvate, 1 mM thiamine pyrophosphate, 0.1 mM flavin adenine dinucleotide, and 0.5 mL of the ALS extract, with varying amounts of herbicide (0.0.1, 1, 10, 100, 1000 μM). The mixture was then incubated at 37° C. for 1 h. […] The mixtures were then centrifuged at 12,000 g for 10 min, and absorbance was measured at 530 nm with a Spectrophotometer 690.

[5] = biological target: T1, AHAS enzyme from CL161 rice (Oryza sativa subsp. japonica, UniProt Q6K2E8, S627N); assay: ALS enzyme assay, CL161 rice versus CCDR rice; type: biochemical
T1 construct: from tissue; host or cells: leaves of CL161 rice plants; crude ammonium sulfate fraction
T1 sequence (Q6K2E8 44-644 S627N): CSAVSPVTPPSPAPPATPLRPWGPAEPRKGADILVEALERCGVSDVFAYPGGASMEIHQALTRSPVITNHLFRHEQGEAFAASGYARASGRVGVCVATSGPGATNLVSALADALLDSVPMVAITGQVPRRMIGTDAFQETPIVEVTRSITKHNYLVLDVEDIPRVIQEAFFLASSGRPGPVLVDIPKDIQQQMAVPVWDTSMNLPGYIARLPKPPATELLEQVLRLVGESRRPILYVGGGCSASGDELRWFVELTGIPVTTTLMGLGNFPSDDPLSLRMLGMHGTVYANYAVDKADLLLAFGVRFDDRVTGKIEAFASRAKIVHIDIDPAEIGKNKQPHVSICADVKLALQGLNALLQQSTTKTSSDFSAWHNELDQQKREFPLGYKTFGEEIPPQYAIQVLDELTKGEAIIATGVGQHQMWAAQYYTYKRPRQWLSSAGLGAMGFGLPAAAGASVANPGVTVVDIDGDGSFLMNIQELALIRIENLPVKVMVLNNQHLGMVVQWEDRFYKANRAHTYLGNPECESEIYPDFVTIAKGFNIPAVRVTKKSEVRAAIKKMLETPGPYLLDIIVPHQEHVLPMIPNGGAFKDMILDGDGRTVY
Excerpt: as §2, §3

[6] = tested on: susceptible transplants from Idlewild; assay: Transplanting trial, susceptible transplants; type: in vivo, Coreopsis tinctoria; settings: applied 2 weeks after transplant, ratings 2 and 4 weeks after application
Procedure: A transplanting trial was also conducted in May at the Idlewild Research Station. Five-inch diameter divots of plants were collected at both the Chase and Idlewild sites. Divots were transplanted to a location at Idlewild which had had no previous Coreopsis crop. Divots were transplanted in a paired arrangement on 36 inch centers. Oust, Plateau and Outrider were applied at various rates 2 weeks after transplant. The trial used a randomized complete block design with 3 replications. Visual injury and height ratings were taken 2 and 4 weeks after application. Injury to the susceptible transplants from Idlewild ranged from a high of 100% at all rates of Oust to a low of 60% with the 0.06 pound ai/A rate of Outrider. No injury was observed, nor any height differences noted in any application made to the resistant transplants from the Chase site.

[7] = tested on: Idlewild-grown control seed (herbicide-sensitive Coreopsis); assay: Field planting sprayed with Oust, Idlewild-grown control seed; type: in vivo, Coreopsis tinctoria; settings: single application of Oust at 0.07 pounds ai/A
Excerpt: (§4) Seed were harvested from mature Coreopsis with a combine from plantings both inside and outside the herbicide treated areas at the Idlewild Research Station in Clinton, La. Seed were also harvested with a combine from the roadside area near Chase, La. Putative herbicide-resistant seed from the Chase location, and putative herbicide-sensitive seed from the Idlewild Research Station were separately cleaned and stored in a climate-controlled seed storage facility.
(§5) Seed samples from both seed sources were planted in March at the Idlewild Research Station using a small grain drill, at a 2 pound per acre seeding rate. Area one contained both control seed grown the previous season at the Idlewild Research Station, and seed obtained from the Chase, La. site. A second area was planted in March exclusively with seed from Chase, La. A third area was planted in April with seed from Chase, La.
(§6) A single application of Oust at 0.07 pounds ai/A was applied in mid-May to half of the first and third plantings and to all of the second planting.

[8] = tested on: seed from Chase (herbicide-resistant Coreopsis); assay: Field planting sprayed with Oust, seed from Chase; type: in vivo, Coreopsis tinctoria
Excerpt: as §4, §5, §6

susceptible Coreopsis = assay: Field trial of ALS-inhibiting herbicides on F1 plants, commercial control seed; type: in vivo, Coreopsis tinctoria; settings: Oust applied at 0.07 pounds ai/A, ratings taken at 23 and 49 days after application
Procedure: To confirm herbicide resistance, and to characterize herbicide resistance profiles, seeds from the roadside-harvested, putatively-resistant Coreopsis were harvested (F0) and planted in a field in a separate location from the original roadside stand. The resulting F0 plants were not subjected to herbicide treatment. F1 seeds were harvested from the F0 plants, and the F1 seeds were planted in a field in several blocks and replicates. The resulting F1 plants were treated with various AHAS-inhibiting herbicides.
Commercial Coreopsis tinctoria seed were obtained as controls from two commercial nurseries. The commercially-obtained seed and the experimental seed were planted with a small grain drill at a seeding rate of 2 pounds per acre. Three months later, herbicides were applied to the F1 plants at different rates in a randomized complete block design with three replications. The ALS-inhibiting herbicides used in this trial were sulfometuron methyl (trade name Oust™); imazapic (trade name Plateau™); sulfosulfuron, 1-(2-ethylsulfonylimidazo[1,2a]pyridin-3-ylsulfonyl)-3-(4,6-dimethoxypyrimidin-2-yl) urea (trade name Outrider™); and DPX 6447.
Percent injury ratings were taken at 23 and 49 days after herbicide application. All herbicide treatments injured the susceptible Coreopsis. […]

[9] = SM 8 oz. a.i./A, IM 2 oz. a.i./A, sequential sprays March 3 and March 13
[10] = sequential sprays March 3 and March 13, 25 days after treatment

In the case of `Cc1cnc(C2=NC(C)(C(C)C)C(=O)N2)c(C(=O)O)c1` (racemic) [imazapic, (±)-2-[4,5-dihydro-4-methyl-4-(1-methyl-ethyl)-5-oxo-1H-imidazol-2-yl]-5-methyl-3-pyridinecarboxylic acid], the “Pre-emergence and/or post-emergence resistance to herbicide” value [1] is reported as “Resistance has been demonstrated”.

In the case of `CC(C)C1(C)N=C(c2ncccc2C(=O)O)NC1=O` (centres unmarked) [Arsenal, 2-[4,5-dihydro-4-methyl-4-(1-methylethyl)-5-oxo-1H-imidazol-2-yl]-3-pyridinecarboxylic acid], the “Plant height compared to the unsprayed resistant controls (in words)” value [2] is reported as “not affected”, the “% height reduction compared to no spray control” value [2, 9] is reported as 0% and the “Plant height (cm)” value [2, 9] is reported as 9.2 cm. For the same compound, the Injury rating ([2]; scale 0 = no injury, 10 = dead plant, SM 8 oz. a.i./A, IM 2 oz. a.i./A) was 0.7, the “% height reduction compared to no spray control” value [3, 10] was 80% and the “Plant height (cm)” value [3, 10] was 11.0 cm. The Injury rating ([3]; scale 0 = no injury, 10 = dead plant) was 3.5, the “Tolerance of mutant ALS enzyme compared to susceptible variety” value ([4]; Arsenal at 10 to 100 μM, FIG. 1a) was about 2.5 fold and the “Tolerance of CL161 rice enzyme compared to control” value ([5]; Arsenal at 10 μM, FIG. 1b) was under 2 fold. For the same compound, the “Pre-emergence and/or post-emergence resistance to herbicide” value [1] was “Resistance has been demonstrated” and the “Resistance of the clone with mutations at both Pro197 and Trp574” value (from here on “Resistance of the clone with mutations”) [1] was “strong resistance”.

`COc1nc(C)nc(NC(=O)NS(=O)(=O)c2ccccc2Cl)n1` [Glean, 2-chloro-N-[(4-methoxy-6-methyl-1,3,5-triazin-2-yl)aminocarbonyl]benzenesulfonamide] was tested, and the “Tolerance of mutant AHAS compared to susceptible control” value ([4]; Glean at 1 to 10 μM, FIG. 1c) was about 4.5 fold, the “Tolerance of CL161 rice AHAS compared to control” value ([5]; Glean at 1 μM, FIG. 1d) was under 1 fold and the “Resistance of the clone with mutations” value [1] was “strong resistance”.

In the case of `COC(=O)c1ccccc1S(=O)(=O)NC(=O)Nc1nc(C)cc(C)n1` [Oust, 2-[[[[(4,6-dimethyl-2-pyrimidinyl)amino]carbonyl]amino]sulfonyl]benzoic acid methyl ester], the Visual injury ([6]; all rates of Oust) is reported as 100%, the injury rate [7] is reported as 98% and the “Tolerance of mutant ALS compared to susceptible control (in words)” value ([4]; Oust, FIG. 1e) is reported as “more tolerant than the susceptible control for Oust herbicide (sulfometuron methyl) (FIG. 1e), although the difference was not significant”. The “Tolerance of CL161 rice compared to susceptible variety CCDR (in words)” value ([5]; 100 μM of Oust, FIG. 1f) was “significantly greater tolerance”, the “effect of second application” value ([8]; second application of Oust at 0.14 pounds ai/A) was “no noticeable effect” and the injury rate ([8]; single application of Oust at 0.07 pounds ai/A) was “less than 1%”. For the same compound, the “Pre-emergence and/or post-emergence resistance to herbicide” value [1] was “Resistance has been demonstrated”, the “Resistance of the clone with mutations” value [1] was “strong resistance” and the Percent injury rating (susceptible Coreopsis) was 98%.

With `CCS(=O)(=O)c1nc2ccccn2c1S(=O)(=O)NC(=O)Nc1nc(OC)cc(OC)n1` [Outrider, 1-(2-ethylsulfonylimidazo[1,2a]pyridin-3-ylsulfonyl)-3-(4,6-dimethoxypyrimidin-2-yl) urea] the Visual injury ([6]; 0.06 pound ai/A rate of Outrider) was 60% and the “Pre-emergence and/or post-emergence resistance to herbicide” value [1] was “Resistance has been demonstrated”.

With `COc1cc(OC)nc(NC(=O)NS(=O)(=O)c2ncccc2C(F)(F)F)n1` [flazasulfuron] the “Pre-emergence and/or post-emergence resistance to herbicide” value [1] was “Resistance has been demonstrated”.

In the case of `COC(=O)c1ccccc1S(=O)(=O)NC(=O)Nc1nc(C)nc(OC)n1` [metsulfuron methyl, methyl 2-[[[[(4-methoxy-6-methyl-1,3,5-triazin-2-yl)amino]carbonyl]amino]sulfonyl]benzoate], the “Pre-emergence and/or post-emergence resistance to herbicide” value [1] is reported as “Resistance has been demonstrated”.

For `COc1nc(C)nc(NC(=O)NS(=O)(=O)c2ccccc2OCCCl)n1` [triasulfuron, 3-(6-methoxy-4-methyl-1,3,5-triazin-2-yl)-1-[2-(2-chloroethoxy)-phenylsulfonyl]-urea], the “Pre-emergence and/or post-emergence resistance to herbicide” value [1] was “Resistance has been demonstrated”.
